The text below walks through data of US20170050966A1, “INHIBITING THE TRANSIENT RECEPTOR POTENTIAL A1 ION CHANNEL” (HYDRA BIOSCIENCES, INC., priority 2014, published 2017).

Values after ≈ are worked out from the molar mass of the structure shown. Read-outs that look alike come from different tables or passages of the source.

One data set deals with T1, human TRPA1 (hTRPA1) (Homo sapiens, UniProt O75762).
T1 construct: expressed in transfected cells
The experiment in a line: Inhibition of human TRPA1, whole-cell patch clamp. It counts as cell-based. In short, it runs like this: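 Whole-cell patch clamp on hTRPA1, Cs-based pipette solution pH 7.2, NaCl bath pH 7.4 (EGTA or 2 mM CaCl2). Currents recorded continuously at −60 mV or by −100 to 100 mV ramps every 4 s from 0 mV, analyzed at −80/80 mV; focal perfusion with controlled temperature, no junction-potential correction.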

A further data set deals with CYP2C19 (Homo sapiens, UniProt P33261). Description: P450 Cyp-inhibition luminescent assay. The class given is biochemical. Here is the method:
(§1) The ability of Compound 2 to inhibit human CYP450 enzymes was evaluated. Compound 1 and Compound 2 were tested in standard P450 Cyp-inhibition luminescent assay.

For a further data set, the target named is CYP2C9 (Homo sapiens, UniProt P11712). The experiment in a line: P450 Cyp-inhibition luminescent assay. It counts as biochemical. Here is the method:
as §1

A further data set has as its target T2, CYP1A2 (Homo sapiens, UniProt P05177).
T2 sequence (P05177 1-516): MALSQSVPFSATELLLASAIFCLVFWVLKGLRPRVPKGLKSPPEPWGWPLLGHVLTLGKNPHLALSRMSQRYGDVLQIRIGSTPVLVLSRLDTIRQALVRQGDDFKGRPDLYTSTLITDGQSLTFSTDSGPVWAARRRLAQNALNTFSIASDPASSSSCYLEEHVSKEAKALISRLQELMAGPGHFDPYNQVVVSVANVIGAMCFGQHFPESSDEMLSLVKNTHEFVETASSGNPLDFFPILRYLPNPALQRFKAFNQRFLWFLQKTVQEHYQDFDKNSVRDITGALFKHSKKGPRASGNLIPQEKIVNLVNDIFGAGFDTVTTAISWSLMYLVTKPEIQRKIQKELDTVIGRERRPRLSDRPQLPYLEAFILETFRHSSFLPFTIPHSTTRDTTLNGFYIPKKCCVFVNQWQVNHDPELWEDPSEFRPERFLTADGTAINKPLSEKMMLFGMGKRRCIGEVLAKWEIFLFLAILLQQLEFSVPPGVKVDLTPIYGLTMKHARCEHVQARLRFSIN
The experiment in a line: P450 Cyp-inhibition luminescent assay. The class given is biochemical. Here is the method: as §1

The target in the next data set is CYP3A4 (Homo sapiens, UniProt P08684). Description: P450 Cyp-inhibition luminescent assay. The class given is biochemical. Here is the method: as §1
Sequence of CYP3A4 (P08684 whole entry): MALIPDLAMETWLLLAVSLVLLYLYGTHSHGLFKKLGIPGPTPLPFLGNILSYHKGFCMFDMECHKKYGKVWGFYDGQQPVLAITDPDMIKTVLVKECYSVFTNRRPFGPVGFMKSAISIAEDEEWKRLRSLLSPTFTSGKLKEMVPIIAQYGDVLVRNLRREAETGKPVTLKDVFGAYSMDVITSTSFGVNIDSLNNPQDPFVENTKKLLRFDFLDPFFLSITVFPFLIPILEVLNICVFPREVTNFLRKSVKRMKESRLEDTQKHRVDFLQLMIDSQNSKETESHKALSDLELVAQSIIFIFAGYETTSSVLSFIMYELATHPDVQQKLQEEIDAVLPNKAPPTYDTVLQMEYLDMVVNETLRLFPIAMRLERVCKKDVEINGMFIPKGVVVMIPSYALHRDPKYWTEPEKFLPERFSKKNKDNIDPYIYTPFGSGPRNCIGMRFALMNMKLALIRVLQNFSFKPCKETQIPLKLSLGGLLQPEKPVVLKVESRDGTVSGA
A further data set deals with CYP2D6 (Homo sapiens, UniProt P10635). Description: P450 Cyp-inhibition luminescent assay. It counts as biochemical. Here is the method:
as §1

Data set [1] can be described thus: Kinetic solubility in buffered solutions. The class given is physicochemical. To be noted: aqueous buffer, kinetic from dmso stock, 24 hours ambient.
Setting [2] is: antagonist effect, whole cell patch configuration, read-out: hTRPA1.
Setting [3] is: sodium acetate buffer, pH 4.0, 50 mM sodium acetate, read-out: pH 4.0 solubility.
Where [4] appears, read: sodium bicarbonate buffer, pH 9.0, 50 mM sodium bicarbonate, read-out: pH 9.0 solubility.
Setting [5] is: sodium phosphate buffer, pH 7.4, 75 mM sodium phosphate, read-out: pH 7.4 solubility.

T1 sequence (O75762 whole entry): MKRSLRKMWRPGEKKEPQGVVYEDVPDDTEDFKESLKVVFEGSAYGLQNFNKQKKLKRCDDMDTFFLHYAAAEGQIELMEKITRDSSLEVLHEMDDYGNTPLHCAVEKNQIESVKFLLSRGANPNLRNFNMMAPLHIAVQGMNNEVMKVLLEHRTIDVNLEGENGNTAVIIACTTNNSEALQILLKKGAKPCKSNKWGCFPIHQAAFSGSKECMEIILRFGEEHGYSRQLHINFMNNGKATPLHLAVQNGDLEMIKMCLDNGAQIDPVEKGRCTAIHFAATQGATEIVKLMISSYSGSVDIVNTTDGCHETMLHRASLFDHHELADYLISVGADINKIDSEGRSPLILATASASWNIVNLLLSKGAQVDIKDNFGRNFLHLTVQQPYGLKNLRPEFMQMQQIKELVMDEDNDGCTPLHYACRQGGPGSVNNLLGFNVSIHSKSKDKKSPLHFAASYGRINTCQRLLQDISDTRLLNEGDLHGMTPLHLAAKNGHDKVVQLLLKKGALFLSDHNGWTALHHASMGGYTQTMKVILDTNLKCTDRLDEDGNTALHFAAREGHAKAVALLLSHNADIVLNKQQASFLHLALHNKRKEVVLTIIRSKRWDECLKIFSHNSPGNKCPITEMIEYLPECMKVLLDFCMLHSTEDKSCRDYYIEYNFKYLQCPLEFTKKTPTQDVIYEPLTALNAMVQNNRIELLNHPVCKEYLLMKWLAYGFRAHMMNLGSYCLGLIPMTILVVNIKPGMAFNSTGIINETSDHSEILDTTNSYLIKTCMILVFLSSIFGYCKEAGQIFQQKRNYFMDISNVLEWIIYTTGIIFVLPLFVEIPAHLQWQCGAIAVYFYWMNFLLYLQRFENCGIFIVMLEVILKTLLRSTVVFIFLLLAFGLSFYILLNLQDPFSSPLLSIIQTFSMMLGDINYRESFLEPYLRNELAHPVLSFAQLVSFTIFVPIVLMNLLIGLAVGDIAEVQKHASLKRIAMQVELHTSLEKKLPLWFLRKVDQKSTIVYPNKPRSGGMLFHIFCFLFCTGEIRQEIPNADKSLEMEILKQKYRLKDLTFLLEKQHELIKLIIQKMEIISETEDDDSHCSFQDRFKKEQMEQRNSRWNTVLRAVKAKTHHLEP
Sequence of CYP2C19 (P33261 whole entry): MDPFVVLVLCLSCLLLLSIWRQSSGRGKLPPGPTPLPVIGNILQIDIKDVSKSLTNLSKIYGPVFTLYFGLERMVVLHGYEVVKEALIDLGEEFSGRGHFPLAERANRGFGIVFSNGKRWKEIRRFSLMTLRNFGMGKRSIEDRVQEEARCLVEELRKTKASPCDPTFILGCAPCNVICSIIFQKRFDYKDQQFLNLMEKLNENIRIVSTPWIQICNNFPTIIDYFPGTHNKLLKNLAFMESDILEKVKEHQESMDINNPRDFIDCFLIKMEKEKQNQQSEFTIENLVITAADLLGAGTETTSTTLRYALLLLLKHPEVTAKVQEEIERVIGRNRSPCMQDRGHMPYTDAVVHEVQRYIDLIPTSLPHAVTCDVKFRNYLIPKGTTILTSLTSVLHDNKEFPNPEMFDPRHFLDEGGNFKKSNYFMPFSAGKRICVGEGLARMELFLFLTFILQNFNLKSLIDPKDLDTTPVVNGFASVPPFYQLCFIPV
Sequence of CYP2C9 (P11712 whole entry): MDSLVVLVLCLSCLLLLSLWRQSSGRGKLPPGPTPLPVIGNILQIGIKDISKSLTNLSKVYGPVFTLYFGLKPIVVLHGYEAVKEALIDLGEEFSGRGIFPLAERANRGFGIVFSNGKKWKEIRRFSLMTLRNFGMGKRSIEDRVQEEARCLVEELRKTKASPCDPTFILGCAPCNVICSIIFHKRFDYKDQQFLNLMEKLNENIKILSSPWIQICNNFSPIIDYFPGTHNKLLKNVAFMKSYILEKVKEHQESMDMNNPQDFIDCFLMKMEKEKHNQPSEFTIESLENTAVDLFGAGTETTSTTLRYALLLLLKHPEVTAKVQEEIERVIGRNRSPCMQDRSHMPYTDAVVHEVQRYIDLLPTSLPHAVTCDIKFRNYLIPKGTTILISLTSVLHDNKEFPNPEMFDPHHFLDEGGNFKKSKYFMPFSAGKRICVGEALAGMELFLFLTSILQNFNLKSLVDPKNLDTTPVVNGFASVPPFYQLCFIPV
Sequence of CYP2D6 (P10635 whole entry): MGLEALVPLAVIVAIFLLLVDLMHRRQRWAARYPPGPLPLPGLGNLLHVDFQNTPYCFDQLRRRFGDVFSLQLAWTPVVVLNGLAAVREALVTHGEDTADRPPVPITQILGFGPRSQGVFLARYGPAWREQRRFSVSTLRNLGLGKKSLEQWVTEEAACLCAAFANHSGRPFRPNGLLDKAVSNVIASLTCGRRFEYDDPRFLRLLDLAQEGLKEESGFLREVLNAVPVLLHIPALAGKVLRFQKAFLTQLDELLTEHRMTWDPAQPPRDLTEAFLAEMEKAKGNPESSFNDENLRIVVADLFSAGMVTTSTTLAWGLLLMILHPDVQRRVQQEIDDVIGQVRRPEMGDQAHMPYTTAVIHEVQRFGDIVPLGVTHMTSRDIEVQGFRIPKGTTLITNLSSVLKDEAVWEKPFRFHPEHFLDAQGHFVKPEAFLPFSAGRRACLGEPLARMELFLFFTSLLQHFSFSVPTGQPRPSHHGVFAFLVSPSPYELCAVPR

For the molecule `C[C@@H](C(=O)Nc1ccnc(-c2cnc(N3CCCC3(C)C)nc2)n1)n1cnc2c1c(=O)n(C)c(=O)n2C` [Compound 1, (S)-2-(1,3-dimethyl-2,6-dioxo-2,3-dihydro-1H-purin-7(6H)-yl)-N-(2′-(2,2-dimethylpyrrolidin-1-yl)-[2,5′-bipyrimidin]-4-yl)propanamide], the IC50 on human TRPA1 (hTRPA1) (setting [2]) stood at 5.15 nM. For the same molecule, the “CYP 2C19: % Inhibition” value on CYP2C19 is listed as 45.9%. Moreover, the “CYP 2C9: % Inhibition” value at CYP2C9 stood at 71.4%. In addition, on CYP1A2, the “CYP 1A2: % Inhibition” value worked out at 4.2%. In addition, the “CYP 3A4: % Inhibition” value on CYP3A4 is on record as 26.9%. Further, the “CYP 2D6: % Inhibition” value on CYP2D6 is on record as 9%. In addition, the values for the solubility kinetic at 24 h in data set [1] (setting [3]), in data set [1] (setting [4]) and in data set [1] (setting [5]) were 4 µg/mL (≈ 7.93 µM), 2 µg/mL (≈ 3.96 µM) and 3 µg/mL (≈ 5.95 µM), respectively.

Take `C[C@@H](C(=O)Nc1ccnc(-c2cnc(N3CCC[C@H]3C(F)(F)F)nc2)n1)n1cnc2c1c(=O)n(C)c(=O)n2C` [Compound 2, (S)-2-(1,3-dimethyl-2,6-dioxo-2,3-dihydro-1H-purin-7(6H)-yl)-N-(2′-((S)-2-(trifluoromethyl)pyrrolidin-1-yl)-[2,5′-bipyrimidin]-4-yl)propanamide]: the IC50 came to 6.87 nM on human TRPA1 (hTRPA1) (setting [2]) and 6.9 ± 3.1 nM on human TRPA1 (hTRPA1) (hTRPA1, 10 μM AITC, read-out: IC50 Inward current). Further, the “CYP 2C19: % Inhibition” value at CYP2C19 is given as 29.1%. In addition, the “CYP 2C9: % Inhibition” value on CYP2C9 is given as 39.6%. Also, at CYP1A2, the “CYP 1A2: % Inhibition” value turned out to be 0.299%. Besides, the “CYP 3A4: % Inhibition” value at CYP3A4 was 2.7%. The “CYP 2D6: % Inhibition” value on CYP2D6 turned out to be 6.3%. The figures for the solubility kinetic at 24 h in data set [1] (setting [3]), in data set [1] (setting [4]) and in data set [1] (setting [5]) were 85 µg/mL (≈ 156 µM), 69 µg/mL (≈ 127 µM) and 71 µg/mL (≈ 130 µM), respectively.

`C[C@@H](C(=O)Nc1ccnc(-c2cnc(N3CCC[C@@H]3C(F)(F)F)nc2)n1)n1cnc2c1c(=O)n(C)c(=O)n2C` [Compound 4, (S)-2-(1,3-dimethyl-2,6-dioxo-2,3-dihydro-1H-purin-7(6H)-yl)-N-(2′-((R)-2-(trifluoromethyl)pyrrolidin-1-yl)-[2,5′-bipyrimidin]-4-yl)propanamide]: at human TRPA1 (hTRPA1) (setting [2]), the IC50 stood at 11.3 nM.
